Calls of active or inactive are those of the source.
Experiments:
[1] = target: T1, Sentrin-specific protease 7 (Homo sapiens, UniProt Q9BQF6); format: functional;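 note: Luminescence-based dose-response confirmation of ultra-high-throughput screening hits, measuring inhibition of SENP7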
T1 sequence (Q9BQF6 whole entry): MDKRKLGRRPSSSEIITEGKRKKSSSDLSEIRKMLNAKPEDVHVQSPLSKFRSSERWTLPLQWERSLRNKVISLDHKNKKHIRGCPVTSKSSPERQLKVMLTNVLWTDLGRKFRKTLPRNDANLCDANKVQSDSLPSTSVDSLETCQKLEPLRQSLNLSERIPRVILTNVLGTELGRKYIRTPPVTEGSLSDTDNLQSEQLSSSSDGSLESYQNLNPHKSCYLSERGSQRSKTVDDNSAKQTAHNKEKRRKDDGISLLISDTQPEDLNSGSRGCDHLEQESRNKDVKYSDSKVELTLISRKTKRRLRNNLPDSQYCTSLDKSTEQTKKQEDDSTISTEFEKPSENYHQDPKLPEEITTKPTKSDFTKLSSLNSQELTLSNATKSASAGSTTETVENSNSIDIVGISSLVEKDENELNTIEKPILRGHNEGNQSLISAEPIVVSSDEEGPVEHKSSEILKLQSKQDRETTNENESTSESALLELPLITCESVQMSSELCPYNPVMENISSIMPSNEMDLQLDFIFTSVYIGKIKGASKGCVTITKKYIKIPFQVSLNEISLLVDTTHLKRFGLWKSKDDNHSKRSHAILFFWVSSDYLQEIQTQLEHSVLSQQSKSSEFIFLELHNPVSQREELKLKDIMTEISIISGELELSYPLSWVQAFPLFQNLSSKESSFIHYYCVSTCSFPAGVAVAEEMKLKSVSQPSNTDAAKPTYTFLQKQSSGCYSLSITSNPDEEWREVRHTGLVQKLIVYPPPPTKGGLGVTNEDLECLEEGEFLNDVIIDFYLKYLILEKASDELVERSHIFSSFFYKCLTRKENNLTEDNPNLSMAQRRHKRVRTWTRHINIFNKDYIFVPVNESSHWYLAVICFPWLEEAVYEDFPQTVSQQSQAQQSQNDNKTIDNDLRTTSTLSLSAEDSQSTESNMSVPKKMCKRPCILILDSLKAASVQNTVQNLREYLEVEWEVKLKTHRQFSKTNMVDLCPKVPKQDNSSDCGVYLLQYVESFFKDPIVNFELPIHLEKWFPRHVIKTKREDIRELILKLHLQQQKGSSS

[2] = target: T2, Sentrin-specific protease 6 (Homo sapiens, UniProt Q9GZR1); format: functional;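 note: Luminescence-based dose-response confirmatory assay of SENP6 inhibition, following up an ultra-high-throughput screen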
T2 sequence (Q9GZR1 whole entry): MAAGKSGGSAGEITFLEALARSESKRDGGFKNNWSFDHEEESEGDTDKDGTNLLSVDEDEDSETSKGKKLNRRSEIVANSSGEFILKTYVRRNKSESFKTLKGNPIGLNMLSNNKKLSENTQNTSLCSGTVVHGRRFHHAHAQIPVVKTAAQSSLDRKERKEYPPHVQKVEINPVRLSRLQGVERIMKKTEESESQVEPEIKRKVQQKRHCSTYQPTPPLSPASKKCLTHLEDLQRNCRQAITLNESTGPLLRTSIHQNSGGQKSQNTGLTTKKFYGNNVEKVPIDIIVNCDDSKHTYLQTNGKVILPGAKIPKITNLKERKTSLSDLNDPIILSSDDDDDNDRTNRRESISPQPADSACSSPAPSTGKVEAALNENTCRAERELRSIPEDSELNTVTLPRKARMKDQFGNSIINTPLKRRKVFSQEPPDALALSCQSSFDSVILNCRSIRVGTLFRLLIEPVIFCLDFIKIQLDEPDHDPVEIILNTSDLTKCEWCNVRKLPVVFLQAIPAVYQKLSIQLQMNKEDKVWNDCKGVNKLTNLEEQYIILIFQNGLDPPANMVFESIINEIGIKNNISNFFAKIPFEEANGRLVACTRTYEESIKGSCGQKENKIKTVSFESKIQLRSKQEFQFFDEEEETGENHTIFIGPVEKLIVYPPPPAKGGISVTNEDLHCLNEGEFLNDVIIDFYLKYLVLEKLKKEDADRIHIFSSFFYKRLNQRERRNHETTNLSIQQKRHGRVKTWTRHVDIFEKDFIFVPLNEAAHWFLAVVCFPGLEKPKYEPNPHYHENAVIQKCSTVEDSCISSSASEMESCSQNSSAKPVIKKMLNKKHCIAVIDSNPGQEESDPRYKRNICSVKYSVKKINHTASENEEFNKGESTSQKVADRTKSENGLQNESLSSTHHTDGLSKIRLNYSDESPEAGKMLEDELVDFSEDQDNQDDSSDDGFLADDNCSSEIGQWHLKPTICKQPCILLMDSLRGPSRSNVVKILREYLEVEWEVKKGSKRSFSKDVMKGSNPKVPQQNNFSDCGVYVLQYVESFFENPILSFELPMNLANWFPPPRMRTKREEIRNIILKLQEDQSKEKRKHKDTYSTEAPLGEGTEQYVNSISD

[3] = Counterscreen for activators of the function of SWI/SNF related, matrix associated, actin dependent regulator of chromatin, subfamily a, member 2 (SMARCA2, BRM): Luminescence-based cell-based high throughput dose response assay to identify non-selective compounds using the VP16 reporter assay.; format: functional
[4] = target: T3, Sentrin-specific protease 8 (Homo sapiens, UniProt Q96LD8); format: functional;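 note: luminescence read-out of SENP8 inhibition, dose-response confirmation following an ultra-high-throughput screen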
T3 sequence (Q96LD8 whole entry): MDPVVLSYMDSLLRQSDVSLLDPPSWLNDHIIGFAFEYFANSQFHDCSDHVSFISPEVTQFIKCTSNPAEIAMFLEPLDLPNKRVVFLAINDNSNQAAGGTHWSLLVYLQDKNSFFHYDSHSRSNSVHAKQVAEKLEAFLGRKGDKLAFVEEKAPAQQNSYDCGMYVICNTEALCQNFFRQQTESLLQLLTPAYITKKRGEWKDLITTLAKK

[5] = target: SWI/SNF-related matrix-associated actin-dependent regulator of chromatin subfamily A member 2 (Homo sapiens, UniProt P51531); assay: Luminescence-based cell-based high throughput dose response assay to identify activators of the function of SWI/SNF related, matrix associated, actin dependent regulator of chromatin, subfamily a, member 2 (SMARCA2, BRM).; format: functional
Sequence of SWI/SNF-related matrix-associated actin-dependent regulator of chromatin subfamily A member 2 (P51531 whole entry): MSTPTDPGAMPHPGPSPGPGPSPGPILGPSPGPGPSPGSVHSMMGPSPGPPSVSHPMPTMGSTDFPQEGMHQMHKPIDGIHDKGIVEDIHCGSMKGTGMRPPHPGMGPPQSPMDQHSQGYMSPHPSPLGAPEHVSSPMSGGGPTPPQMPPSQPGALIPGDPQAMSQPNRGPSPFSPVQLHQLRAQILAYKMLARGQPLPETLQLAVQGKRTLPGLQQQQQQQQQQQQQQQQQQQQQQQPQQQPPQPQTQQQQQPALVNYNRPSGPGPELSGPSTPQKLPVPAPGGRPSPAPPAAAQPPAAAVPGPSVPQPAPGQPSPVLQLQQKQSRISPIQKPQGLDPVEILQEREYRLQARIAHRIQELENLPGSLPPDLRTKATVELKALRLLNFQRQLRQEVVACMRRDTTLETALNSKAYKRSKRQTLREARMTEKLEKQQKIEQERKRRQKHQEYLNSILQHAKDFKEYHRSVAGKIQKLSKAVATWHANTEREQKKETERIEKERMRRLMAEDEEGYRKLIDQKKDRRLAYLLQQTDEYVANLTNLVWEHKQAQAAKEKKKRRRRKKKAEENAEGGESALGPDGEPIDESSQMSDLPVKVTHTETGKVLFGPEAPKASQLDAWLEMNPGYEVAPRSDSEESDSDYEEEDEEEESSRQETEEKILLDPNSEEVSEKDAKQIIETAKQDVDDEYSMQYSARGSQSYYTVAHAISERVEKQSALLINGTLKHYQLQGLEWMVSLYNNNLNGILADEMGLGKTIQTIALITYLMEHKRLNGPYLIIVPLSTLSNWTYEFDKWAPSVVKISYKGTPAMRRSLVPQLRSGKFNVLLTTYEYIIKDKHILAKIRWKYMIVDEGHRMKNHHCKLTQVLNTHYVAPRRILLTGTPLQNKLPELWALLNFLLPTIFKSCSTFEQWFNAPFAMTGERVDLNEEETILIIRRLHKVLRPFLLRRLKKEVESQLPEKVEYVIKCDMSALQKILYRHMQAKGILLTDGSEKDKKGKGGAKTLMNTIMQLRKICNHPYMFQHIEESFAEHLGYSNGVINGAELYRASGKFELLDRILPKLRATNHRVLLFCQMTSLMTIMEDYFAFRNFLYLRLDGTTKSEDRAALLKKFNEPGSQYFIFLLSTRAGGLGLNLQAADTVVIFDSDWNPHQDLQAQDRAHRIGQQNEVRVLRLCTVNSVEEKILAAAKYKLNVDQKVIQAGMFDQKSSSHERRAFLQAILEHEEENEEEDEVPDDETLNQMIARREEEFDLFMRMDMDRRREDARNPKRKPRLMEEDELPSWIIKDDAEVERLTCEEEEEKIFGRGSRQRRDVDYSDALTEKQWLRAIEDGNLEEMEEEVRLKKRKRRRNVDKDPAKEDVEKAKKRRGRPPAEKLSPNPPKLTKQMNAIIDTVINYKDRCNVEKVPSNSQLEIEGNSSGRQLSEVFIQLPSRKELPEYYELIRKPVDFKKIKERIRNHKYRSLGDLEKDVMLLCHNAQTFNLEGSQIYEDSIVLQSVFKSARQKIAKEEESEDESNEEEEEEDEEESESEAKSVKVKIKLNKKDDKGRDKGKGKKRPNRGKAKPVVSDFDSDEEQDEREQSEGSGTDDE

Caspase-3 = target: T4, Caspase-3 (Homo sapiens, UniProt P42574); format: functional;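 note: Dose-response selectivity test against caspase-3 for candidate inhibitors of sentrin-specific proteases (SENPs)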
T4 sequence (P42574 whole entry): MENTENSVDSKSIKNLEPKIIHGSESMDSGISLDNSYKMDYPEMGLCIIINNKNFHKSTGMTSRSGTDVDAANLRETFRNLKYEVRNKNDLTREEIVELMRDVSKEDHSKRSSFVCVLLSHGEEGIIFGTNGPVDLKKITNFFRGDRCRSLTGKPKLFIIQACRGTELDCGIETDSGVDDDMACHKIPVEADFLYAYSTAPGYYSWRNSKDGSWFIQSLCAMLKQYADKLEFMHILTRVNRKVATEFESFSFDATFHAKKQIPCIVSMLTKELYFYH

Vero = assay: viability loss in Vero cells – cell-based, plate reader, cherry-pick samples, cytotoxicity control, dose response (AID 687020); format: functional; conditions: Chlorocebus sabaeus
[6] = target: T5, Trace amine-associated receptor 1 (Homo sapiens, UniProt Q96RJ0); assay: Counterscreen for agonists of the human trace amine associated receptor 1 (hTAAR1): Fluorescence-based cell-based high throughput dose response assay to identify hTAAR1 agonist that also desensitize TAAR1 receptor response.; format: functional
T5 sequence (Q96RJ0 whole entry): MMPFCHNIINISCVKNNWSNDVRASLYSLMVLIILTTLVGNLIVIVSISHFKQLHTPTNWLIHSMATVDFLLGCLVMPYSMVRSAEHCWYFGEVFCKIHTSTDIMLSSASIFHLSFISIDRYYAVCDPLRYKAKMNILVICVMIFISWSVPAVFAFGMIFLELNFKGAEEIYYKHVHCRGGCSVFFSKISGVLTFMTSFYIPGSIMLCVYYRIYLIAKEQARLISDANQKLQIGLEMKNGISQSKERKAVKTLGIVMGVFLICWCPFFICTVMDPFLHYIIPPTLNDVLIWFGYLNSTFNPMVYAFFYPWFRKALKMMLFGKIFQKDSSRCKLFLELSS

cells [7] = format: functional, cell-based
Streptococcus = assay: GAS UMAA2166 growth inhibition – luminescence, BacTiterGlo, counter-screen for streptokinase expression inhibitor project, dose response (AID 1915); format: functional, organism-based;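 note: potency for reduction of bacterial viability or growth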
cells [8] = format: functional, cell-based; remark: listed apart in the source
Streptokinase A = target: T6, Streptokinase A (Streptococcus pyogenes serotype M1, UniProt P10520); assay: viability-normalized secreted streptokinase activity reduction – plasminogen activation absorbance, OD405, dose response (AID 1914); format: functional, Streptococcus pyogenes M1 GAS;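 note: secreted streptokinase activity via plasminogen activation per viability signal from cell pellet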
T6 sequence (P10520 whole entry): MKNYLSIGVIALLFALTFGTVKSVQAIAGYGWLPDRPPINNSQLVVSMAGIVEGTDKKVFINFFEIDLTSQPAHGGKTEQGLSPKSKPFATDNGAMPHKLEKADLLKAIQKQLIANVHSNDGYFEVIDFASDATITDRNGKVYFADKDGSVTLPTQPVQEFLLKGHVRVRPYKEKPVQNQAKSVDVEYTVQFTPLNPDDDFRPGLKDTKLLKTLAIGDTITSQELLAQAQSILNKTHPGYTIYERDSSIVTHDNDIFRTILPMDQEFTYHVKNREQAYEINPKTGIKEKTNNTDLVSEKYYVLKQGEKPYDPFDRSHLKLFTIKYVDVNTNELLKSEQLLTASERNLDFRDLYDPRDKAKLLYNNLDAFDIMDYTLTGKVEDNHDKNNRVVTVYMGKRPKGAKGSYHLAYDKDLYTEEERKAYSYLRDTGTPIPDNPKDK

[9] = target: T5, Trace amine-associated receptor 1; assay: Fluorescence-based cell-based high throughput dose response assay to identify agonists of the human trace amine associated receptor 1 (TAAR1).; format: functional
[10] = test system: Streptococcus sp. 'group A'; assay: Streptococcus pyogenes SK(-)GAS viability under kanamycin – luminescence, BacTiterGlo, confirmation, counter-screen for streptokinase expression inhibitor project, dose response (AID 1900); format: functional, organism-based
[11] = target: Histone-lysine N-methyltransferase NSD2 (Homo sapiens, UniProt O96028); format: biochemical
Sequence of Histone-lysine N-methyltransferase NSD2 (O96028 whole entry): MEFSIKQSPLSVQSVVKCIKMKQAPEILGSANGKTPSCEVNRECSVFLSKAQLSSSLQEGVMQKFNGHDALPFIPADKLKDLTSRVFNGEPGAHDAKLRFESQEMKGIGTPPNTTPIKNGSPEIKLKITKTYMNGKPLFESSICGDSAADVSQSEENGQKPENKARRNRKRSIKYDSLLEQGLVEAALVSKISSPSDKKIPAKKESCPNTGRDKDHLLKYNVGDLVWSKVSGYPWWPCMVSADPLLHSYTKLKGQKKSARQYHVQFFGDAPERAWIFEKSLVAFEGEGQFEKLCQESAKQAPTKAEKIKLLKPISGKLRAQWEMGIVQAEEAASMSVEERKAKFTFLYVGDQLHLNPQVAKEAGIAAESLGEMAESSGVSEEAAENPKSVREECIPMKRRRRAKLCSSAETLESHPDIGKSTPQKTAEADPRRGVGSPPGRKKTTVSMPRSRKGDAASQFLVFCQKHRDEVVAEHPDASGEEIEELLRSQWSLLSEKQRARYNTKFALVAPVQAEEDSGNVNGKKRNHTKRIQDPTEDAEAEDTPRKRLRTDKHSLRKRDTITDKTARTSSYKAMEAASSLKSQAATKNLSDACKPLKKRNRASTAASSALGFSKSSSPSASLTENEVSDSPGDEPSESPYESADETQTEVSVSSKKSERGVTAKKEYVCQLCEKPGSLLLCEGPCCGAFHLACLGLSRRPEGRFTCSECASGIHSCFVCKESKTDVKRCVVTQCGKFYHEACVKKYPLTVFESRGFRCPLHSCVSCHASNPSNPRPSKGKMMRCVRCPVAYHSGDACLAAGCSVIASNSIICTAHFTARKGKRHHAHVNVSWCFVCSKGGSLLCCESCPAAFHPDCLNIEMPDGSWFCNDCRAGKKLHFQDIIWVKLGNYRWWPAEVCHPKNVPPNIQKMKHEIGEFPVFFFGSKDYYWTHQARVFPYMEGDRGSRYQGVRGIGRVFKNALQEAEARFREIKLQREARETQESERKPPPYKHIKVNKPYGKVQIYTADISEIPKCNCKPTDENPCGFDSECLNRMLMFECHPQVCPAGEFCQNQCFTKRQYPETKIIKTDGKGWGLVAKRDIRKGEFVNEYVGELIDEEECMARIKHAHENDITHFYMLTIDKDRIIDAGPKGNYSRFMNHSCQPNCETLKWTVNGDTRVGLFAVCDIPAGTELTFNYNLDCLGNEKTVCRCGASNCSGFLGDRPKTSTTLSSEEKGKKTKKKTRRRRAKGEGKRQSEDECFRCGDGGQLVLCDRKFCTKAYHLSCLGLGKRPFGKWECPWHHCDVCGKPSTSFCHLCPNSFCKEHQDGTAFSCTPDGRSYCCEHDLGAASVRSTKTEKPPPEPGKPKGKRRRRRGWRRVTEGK

[12] = blockade of melanocortin 4 receptor signaling – cell-based, plate reader, cherry pick, counter-screen for LGR2 antagonist project, dose response (AID 743444); format: functional;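 note: transfected HEK 293 cells stimulated with alpha-MSH peptide; potency of inhibitors of the alpha-MSH evoked signal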
[13] = blockers of bursicon-stimulated LGR2 cAMP reporter – cell-based, HEK293, CRE-luciferase reporter, cherry pick, set 2, dose response (AID 743343); format: functional;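 note: transfected cells were stimulated with diluted bursicon conditioned medium after compound addition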
[14] = viability loss in HEK293 cells – cell-based, plate reader, cherry-picked samples, cytotoxicity control, dose response (AID 743446); format: functional
[15] = toxicity toward HepG2 liver cells – cell-based, plate reader, cherry-pick, antagonist series, cytotoxicity control, dose response (AID 743416); format: functional
Galanin receptor type 3 = Galanin receptor type 3 (Homo sapiens, UniProt O60755); assay: Fluorescence-based cell-based primary high throughput dose response assay to identify antagonists of the Galanin Receptor 3 (GalR3).; format: functional
Sequence of Galanin receptor type 3 (O60755 whole entry): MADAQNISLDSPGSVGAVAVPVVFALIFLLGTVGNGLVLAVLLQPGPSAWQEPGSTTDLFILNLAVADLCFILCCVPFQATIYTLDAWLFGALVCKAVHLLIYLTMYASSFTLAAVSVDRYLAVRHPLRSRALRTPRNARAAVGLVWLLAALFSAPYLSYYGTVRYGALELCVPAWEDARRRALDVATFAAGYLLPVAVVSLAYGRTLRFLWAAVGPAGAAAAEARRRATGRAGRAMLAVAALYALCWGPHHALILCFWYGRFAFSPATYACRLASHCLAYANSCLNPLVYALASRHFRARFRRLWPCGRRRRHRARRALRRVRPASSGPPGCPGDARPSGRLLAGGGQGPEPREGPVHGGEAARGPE

cells [16] = format: functional, cell-based; conditions: HEK-CNG

## Fc1cccc(F)c1-c1nc(-c2ccc(Cl)cc2)no1
[1]
  IC50: 3.99 µM (active)
[2]
  IC50: 5.78 µM (active)
[3]
  EC50: > 91.2 µM (inactive)
[4]
  IC50: 21.8 µM (active)
[5]
  EC50: > 91.2 µM (inactive)
Caspase-3
  IC50: 25.2 µM (active)

## Cc1cc(Cl)c2oc(C(=O)N(C)CCCCN3CCOCC3)c(C)c2c1
Vero
  AC50: 30.2 µM (active)

## CCN(CCn1cccn1)C(=O)CC1C(=O)NCCN1CCc1ccccc1 (stereo not drawn)
[6]
  IC50: 2.2 µM (active)
Cells [7]
  EC50: > 29.9 µM (inactive)
Streptococcus
  EC50: > 150 µM (not active)
Cells [8]
  IC50: > 29.9 µM (inactive)
Streptokinase A
  EC50: > 150 µM (not active)
[9]
  EC50: 1.31 µM (active)
[10]
  EC50: > 150 µM (not active)

## OCC1OC(n2cnc3c(SCc4ccccc4)ncnc32)C(O)C1O (stereo not drawn)
[3]
  EC50: > 91.3 µM (inactive)
[5]
  EC50: > 91.3 µM (inactive)

## CCCN(CCC)CCCNC(=O)c1ccc(CS(=O)(=O)c2c(Cl)cccc2Cl)o1
[11]
  AC50: > 20 µM (inactive)

## CC(C)c1ccc(Nc2ncc3c(n2)CCN(C(=O)Nc2ccc(F)c(Cl)c2)C3)cc1
Vero
  AC50: 21 µM (active)

## O=C(Nc1nc2ccccc2s1)c1ccc2sc([C@H]3C[C@H](O)[C@@H](CO)O3)nc2c1
[12]
  AC50: 18.5 µM (active)
[13]
  AC50: 18.2 µM (active)
[14]
  AC50: > 52 µM (inactive)
[15]
  AC50: > 52 µM (inactive)

## Clc1cccc(CN2CCN(c3ncc(Cc4ccccc4)cn3)CC2)c1Cl
Galanin receptor type 3
  IC50: > 0.369 µM (active)
Cells [16]
  EC50: > 29.9 µM (inactive)

## CC(Cc1ccccc1)NC=O (stereo not drawn) [FORMETOREX]
[6]
  IC50: 2.27 µM (active)
Cells [7]
  EC50: > 29.9 µM (inactive)
Cells [8]
  IC50: > 29.9 µM (inactive)
[9]
  EC50: 0.576 µM (active)

From ChEMBL document CHEMBL1201862, “PubChem BioAssay data set” (2004)
